Test results: patent US10457677B2 (priority 2015, dated 2019)
Like-named read-outs stand apart in the source and are kept apart here.

Legend:
[1] = molecular target: purified human recombinant ATM (ataxia telangiectasia mutated), full length (Homo sapiens (Human), UniProt Q13315); assay: ATM kinase assay - determination of ATM inhibition (IC50 ATM), TR-FRET; format: biochemical; conditions: 10 μM ATP, substrate p53
Protocol: ATM kinase assay—determination of ATM inhibition (IC50 ATM):
The IC50 value was determined with the aid of a biochemical ATM kinase assay. The assay consists of two steps: the enzymatic reaction and the detection step. Firstly, ATM (ataxia telangiectasia mutated) protein and the test substance are incubated at different concentrations with addition of substrate protein p53 and ATP. ATM mediates the phosphorylation of p53 at several positions, including at amino acid S15. The amount of phosphorylated p53 is determined with the aid of specific antibodies and the TR-FRET technique. The enzymatic ATM assay is carried out as TR-FRET (HTRF™, Cisbio Bioassays) based 384-well assay. In the first step, purified human recombinant ATM (human ATM, full length, GenBank ID NM_000051, expressed in a mammal cell line) is incubated in assay buffer for 15 minutes with the ATM inhibitor in various concentrations and without test substance as negative or neutral control. The assay buffer comprises 25 mM HEPES pH 8.0, 10 mM Mg(CH3COO)2, 1 mM MnCl2, 0,1% BSA and 0,01% Brij® 35, 5 mM dithiothreitol (DTT). […] In the second step, purified human recombinant cmyc-labelled p53 (human p53, full length, GenBank ID BC003596, expressed in Sf21 insect cells) and ATP are added, and the reaction mixture is incubated at 22° C. for 30-35 minutes. The pharmacologically relevant assay volume is 5 μl. […] The enzymatic reaction is stopped by addition of EDTA. […] After incubation, usually for 2 hours (between 1.5 and 15h), for signal development, the plates are analysed in a plate reader (EnVision, PerkinElmer) using TRF mode (and with laser excitation). […] The measurement data were processed by means of Genedata Screener software.

[2] = system: phosphorylation of CHK2 (phospho-Thr68) in HCT116 cells; assay: Cellular pCHK2 assay: bleomycin-induced phosphorylation of CHK2 (phospho-Thr68), immunofluorescence high-content analysis; format: cell-based, human; conditions: read-out: IC50 (pCHK2)
Excerpt: For the identification of substances which inhibit the phosphorylation of the protein kinase CHK2 at the amino acid threonine 68, an immunofluorescence-based “high content” analysis assay was used in HCT116 cells.
In vitro cell-based immunofluorescence assay for the identification of inhibitors of bleomycin-induced phosphorylation of CHK2 (phospho-Thr68) in the human colon carcinoma cell line HCT116:
HCT116 cells are sown out in a defined cell density in 384-well plates in culture medium (DMEM high glucose, 2 mM GlutaMax, 1 mM Na pyruvate, 10% FCS) and incubated overnight at 37° C. and 10% of CO2. On the following day, the test substances are added in a defined concentration range (1 nM to 30 μM) in combination with 10 μM bleomycin, where the concentration of the solvent DMSO is kept constant at 0.5%. […] Parallel staining of DNA with propidium iodide enables determination of the cell count. The pCHK2 signal is detected using a high-content imager (Molecular Devices IMX Ultra) and automatic image analysis using the MetaXpress software belonging to the instrument. The number of cell nuclei which have a pCHK2 signal above a defined background is determined.

Sequence of purified human recombinant ATM (ataxia telangiectasia mutated), full length (Q13315 whole entry, change not shown): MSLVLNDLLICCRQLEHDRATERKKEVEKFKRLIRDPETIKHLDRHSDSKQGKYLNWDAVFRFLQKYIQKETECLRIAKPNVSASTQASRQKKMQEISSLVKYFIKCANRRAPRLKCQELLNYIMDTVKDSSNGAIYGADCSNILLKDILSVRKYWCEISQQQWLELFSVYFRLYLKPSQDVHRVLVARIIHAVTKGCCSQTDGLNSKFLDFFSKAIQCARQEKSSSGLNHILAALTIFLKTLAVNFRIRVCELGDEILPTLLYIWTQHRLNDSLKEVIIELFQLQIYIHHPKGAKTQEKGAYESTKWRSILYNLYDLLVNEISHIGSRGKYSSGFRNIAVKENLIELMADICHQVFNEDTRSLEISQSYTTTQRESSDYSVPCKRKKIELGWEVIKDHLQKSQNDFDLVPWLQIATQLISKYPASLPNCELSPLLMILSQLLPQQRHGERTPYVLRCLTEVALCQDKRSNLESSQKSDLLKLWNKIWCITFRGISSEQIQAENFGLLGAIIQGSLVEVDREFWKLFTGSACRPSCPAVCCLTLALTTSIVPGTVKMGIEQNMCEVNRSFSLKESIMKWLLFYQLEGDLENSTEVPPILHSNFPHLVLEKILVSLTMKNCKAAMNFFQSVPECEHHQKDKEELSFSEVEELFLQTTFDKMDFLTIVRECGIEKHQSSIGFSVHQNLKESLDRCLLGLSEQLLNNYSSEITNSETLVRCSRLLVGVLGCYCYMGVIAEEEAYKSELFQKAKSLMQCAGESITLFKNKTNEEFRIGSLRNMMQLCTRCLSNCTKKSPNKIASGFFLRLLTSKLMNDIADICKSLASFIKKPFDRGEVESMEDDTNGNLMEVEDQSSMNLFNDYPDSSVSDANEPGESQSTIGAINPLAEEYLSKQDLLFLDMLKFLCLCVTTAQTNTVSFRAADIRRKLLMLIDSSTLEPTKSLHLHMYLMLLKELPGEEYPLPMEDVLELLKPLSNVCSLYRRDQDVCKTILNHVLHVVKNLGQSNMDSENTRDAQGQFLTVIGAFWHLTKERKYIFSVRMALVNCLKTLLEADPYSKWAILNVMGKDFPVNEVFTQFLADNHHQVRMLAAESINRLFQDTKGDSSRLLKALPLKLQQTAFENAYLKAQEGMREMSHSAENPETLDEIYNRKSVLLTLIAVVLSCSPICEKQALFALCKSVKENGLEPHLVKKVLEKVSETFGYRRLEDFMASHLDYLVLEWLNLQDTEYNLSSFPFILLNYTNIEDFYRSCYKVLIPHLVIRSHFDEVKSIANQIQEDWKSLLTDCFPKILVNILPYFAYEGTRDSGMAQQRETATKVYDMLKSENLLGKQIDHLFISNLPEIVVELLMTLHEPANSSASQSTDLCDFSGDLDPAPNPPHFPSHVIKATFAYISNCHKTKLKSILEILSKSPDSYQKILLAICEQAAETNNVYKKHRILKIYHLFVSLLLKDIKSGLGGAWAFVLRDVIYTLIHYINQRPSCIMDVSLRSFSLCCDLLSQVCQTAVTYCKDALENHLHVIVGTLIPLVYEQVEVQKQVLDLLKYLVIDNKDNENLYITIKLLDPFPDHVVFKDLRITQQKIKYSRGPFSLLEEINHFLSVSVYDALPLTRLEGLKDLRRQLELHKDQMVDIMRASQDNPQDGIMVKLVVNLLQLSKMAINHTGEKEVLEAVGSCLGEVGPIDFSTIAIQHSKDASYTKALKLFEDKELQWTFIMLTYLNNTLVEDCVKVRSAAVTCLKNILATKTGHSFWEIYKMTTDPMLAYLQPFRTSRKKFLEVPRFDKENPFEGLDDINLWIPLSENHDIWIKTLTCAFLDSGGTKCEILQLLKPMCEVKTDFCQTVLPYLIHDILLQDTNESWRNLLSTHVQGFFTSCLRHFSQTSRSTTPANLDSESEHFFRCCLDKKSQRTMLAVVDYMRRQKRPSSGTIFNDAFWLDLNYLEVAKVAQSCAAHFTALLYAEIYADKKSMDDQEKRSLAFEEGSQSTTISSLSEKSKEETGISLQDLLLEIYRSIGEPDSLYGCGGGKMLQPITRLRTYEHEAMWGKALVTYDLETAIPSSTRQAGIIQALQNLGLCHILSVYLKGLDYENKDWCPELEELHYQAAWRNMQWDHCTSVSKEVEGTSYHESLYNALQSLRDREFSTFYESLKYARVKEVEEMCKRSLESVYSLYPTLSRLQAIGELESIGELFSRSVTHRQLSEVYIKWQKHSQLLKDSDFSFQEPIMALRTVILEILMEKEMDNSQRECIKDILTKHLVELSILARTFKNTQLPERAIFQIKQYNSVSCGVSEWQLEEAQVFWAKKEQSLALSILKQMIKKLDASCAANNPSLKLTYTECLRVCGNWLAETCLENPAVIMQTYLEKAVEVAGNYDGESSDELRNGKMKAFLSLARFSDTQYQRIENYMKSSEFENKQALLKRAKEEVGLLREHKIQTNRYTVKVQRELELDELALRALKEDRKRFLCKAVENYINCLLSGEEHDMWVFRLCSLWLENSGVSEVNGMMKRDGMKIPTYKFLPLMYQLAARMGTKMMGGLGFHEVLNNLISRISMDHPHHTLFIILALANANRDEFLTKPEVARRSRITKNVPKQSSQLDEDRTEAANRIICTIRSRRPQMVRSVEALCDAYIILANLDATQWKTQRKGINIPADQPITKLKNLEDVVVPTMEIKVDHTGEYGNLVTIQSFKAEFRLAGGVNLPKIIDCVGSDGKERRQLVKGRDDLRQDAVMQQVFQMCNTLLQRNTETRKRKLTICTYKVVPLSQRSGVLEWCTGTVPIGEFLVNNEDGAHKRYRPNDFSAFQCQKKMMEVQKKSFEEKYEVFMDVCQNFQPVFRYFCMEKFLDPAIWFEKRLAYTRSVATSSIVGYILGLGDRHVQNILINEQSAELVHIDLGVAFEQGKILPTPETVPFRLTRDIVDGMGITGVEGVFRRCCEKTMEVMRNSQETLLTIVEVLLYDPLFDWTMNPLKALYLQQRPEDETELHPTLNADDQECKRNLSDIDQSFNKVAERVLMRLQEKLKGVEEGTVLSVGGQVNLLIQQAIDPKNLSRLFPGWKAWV

Compound	IC50 [1] [nM]	also measured
COc1cc2ncc3c(c2cc1-c1cnn(C)c1)n(-c1cn(C)nc1F)c(=O)n3C [compound 141, 1-(3-Fluoro-1-methyl-1H-pyrazol-4-yl)-7-methoxy-3-methyl-8-(1-methyl-1H-pyrazol-4-yl)-1,3-dihydro-imidazo[4,5-c]quinolin-2-one]	< 10	IC50 ([2]; Homo sapiens, HCT-116, 4 h): 200 to 1000 nM
CCn1cc(-c2cc3c(cc2OC)ncc2c3n(-c3c(F)cncc3OC)c(=O)n2C)cn1 [Example 13]	–	IC50 ([2]; HCT116 cells, 10 μM bleomycin, 4 h): < 200 nM
CCn1cc(-c2cc3c(cc2OC)ncc2c3n(-c3ncc(OC)cc3F)c(=O)n2C)cn1 [compound 111, 8-(1-Ethyl-1H-pyrazol-4-yl)-1-(3-fluoro-5-methoxy-pyridin-2-yl)-7-methoxy-3-methyl-1,3-dihydroimidazo-[4,5-c] quinolin-2-one]	< 10	–
COc1cc2ncc3c(c2cc1-c1cnn(C)c1)n(-c1ccc2ccccc2n1)c(=O)n3C [compound 68, 7-Methoxy-3-methyl-8-(1-methyl-1H-pyrazol-4-yl)-1-quinolin-2-yl-1,3-dihydro-imidazo[4,5-c]quinolin-2-one]	< 10	–
CCn1cc(-c2cc3c(cc2OC)ncc2c3n(-c3c(F)cncc3OC)c(=O)n2C)c(C)n1 [compound 142, 8-(1-Ethyl-3-methyl-1H-pyrazol-4-yl)-1-(3-fluoro-5-methoxypyridin-4-yl)-7-methoxy-3-methyl-1,3-dihydroimidazo[4,5-c] quinolin-2-one]	< 1	–
COc1cc2ncc3c(c2cc1-c1cnn(C)c1)n(-c1ccncc1C1CC1)c(=O)n3C [compound 200, 1-(3-Cyclopropylpyridin-4-yl)-7-methoxy-3-methyl-8-(1-methyl-1H-pyrazol-4-yl)-1,3-dihydroimidazo[4,5-c] quinolin-2-one]	< 50	–
CNC(=O)c1cnc(-n2c(=O)n(C)c3cnc4cc(OC)c(-c5cn(C)nc5C)cc4c32)c(F)c1 [compound 139, 6-[8-(1,3-Dimethyl-1H-pyrazol-4-yl)-7-methoxy-3-methyl-2-oxo-2,3-dihydro-imidazo[4,5-c]quinolin-1-yl]-5-fluoro-N-methyl-nicotinamid]	< 1	–
COc1cc2ncc3c(c2cc1-c1cnn(C(F)F)c1)n(-c1c(F)cncc1OC)c(=O)n3C [compound 143, 8-(1-Difluoromethyl-1H-pyrazol-4-yl)-1-(3-fluoro-5-methoxypyridin-4-yl)-7-methoxy-3-methyl-1,3-dihydroimidazo[4,5-c] quinolin-2-one]	< 1	–
CCn1cc(-n2c(=O)n(C)c3cnc4cc(OC)c(-c5cnn(C)c5)cc4c32)c(C)n1 [compound 130, 1-(1-Ethyl-3-methyl-1H-pyrazol-4-yl)-7-methoxy-3-methyl-8-(1-methyl-1H-pyrazol-4-yl)-1,3-dihydro-imidazo[4,5-c]quinolin-2-one]	< 1	–
COc1cc2ncc3c(c2cc1-c1cnc2nc(C)[nH]c2c1)n(-c1cn(C)nc1C)c(=O)n3C [compound 154, 1-(1,3-Dimethyl-1H-pyrazol-4-yl)-7-methoxy-3-methyl-8-(2-methyl-1H-imidazo[4,5-b]pyridin-6-yl)-1,3-dihydro-imidazo[4,5-c]quinolin-2-one]	< 1	–
COc1cc2ncc3[nH]c(=O)n(-c4c(F)cncc4OC)c3c2cc1-c1cn(C)nc1C [compound 129, 8-(1,3-Dimethyl-1H-pyrazol-4-yl)-1-(3-fluoro-5-methoxy-pyridin-4-yl)-7-methoxy-1,3-dihydroimidazo[4,5-c]-quinolin-2-one]	< 1	–
COc1cc2ncc3[nH]c(=O)n(-c4c(F)cncc4OC)c3c2cc1-c1cnn(C)c1 [compound 116, 1-(3-Fluoro-5-methoxy-pyridin-4-yl)-7-methoxy-8-(1-methyl-1H-pyrazol-4-yl)-1,3-dihydroimidazo[4,5-c]-quinolin-2-one]	< 10	–
COc1cc2ncc3c(c2cc1-c1cnn(C)n1)n(-c1c(F)cncc1OC)c(=O)n3C [compound 127, 1-(3-Fluoro-5-methoxy-pyridin-4-yl)-7-methoxy-3-methyl-8-(2-methyl-2H-1,2,3-triazol-4-yl)-1,3-dihydroimidazo[4,5-c] quinolin-2-one]	< 10	–
COc1cc2ncc3c(c2cc1-c1cc(N)n[nH]1)n(-c1ncccc1F)c(=O)n3C [compound 65, 8-(3-Amino-1H-pyrazol-5-yl)-1-(3-fluoro-2-pyridyl)-7-methoxy-3-methyl-imidazo-[4,5-c]quinolin-2-one]	< 1	–
COc1cc2ncc3c(c2cc1-c1ccn[nH]1)n(-c1c(F)cncc1OC)c(=O)n3C [compound 124, 1-(3-Fluoro-5-methoxy-pyridin-4-yl)-7-methoxy-3-methyl-8-(2H-pyrazol-3-yl)-1,3-dihydroimidazo[4,5-c] quinolin-2-one]	< 50	–
COc1ccc(-c2cc3c(cc2OC)ncc2c3n(-c3c(F)cncc3OC)c(=O)n2C)cn1 [compound 137, 1-(3-Fluoro-5-methoxy-pyridin-4-yl)-7-methoxy-8-(6-methoxypyridin-3-yl)-3-methyl-1,3-dihydroimidazo-[4,5-c]quinolin-2-one]	< 10	–
COc1cc2ncc3c(c2cc1-c1cn(C)nn1)n(-c1cn(C)nc1C)c(=O)n3C [Compound Example 42, 1-(1,3-Dimethyl-1H-pyrazol-4-yl)-7-methoxy-3-methyl-8-(1-methyl-1H-1,2,3-triazol-4-yl)-1,3-dihydroimidazo-[4,5-c]quinolin-2-one]	< 10	–
COc1cnc(-n2c(=O)n(C)c3cnc4cc(OC)c(-c5ccn[nH]5)cc4c32)c(F)c1 [compound 109, 1-(3-Fluoro-5-methoxy-pyridin-2-yl)-7-methoxy-3-methyl-8-(2H-pyrazol-3-yl)-1,3-dihydroimidazo[4,5-c] quinolin-2-one]	< 10	–
COc1cc2ncc3c(c2cc1-c1cnn(C)c1)n(-c1ccc(F)cn1)c(=O)n3C [Compound Example 50, 1-(5-Fluoropyridin-2-yl)-7-methoxy-3-methyl-8-(1-methyl-1H-pyrazol-4-yl)-1,3-dihydroimidazo[4,5-c]-quinolin-2-one]	< 10	–
COc1cc2ncc3c(c2cc1-c1cnn(C)n1)n(-c1ncc(F)cc1F)c(=O)n3C [compound 101, 1-(3,5-Difluoropyridin-2-yl)-7-methoxy-3-methyl-8-(2-methyl-2H-1,2,3-triazol-4-yl)-1,3-dihydroimidazo-[4,5-c] quinolin-2-one]	< 50	–
COc1cc2ncc3[nH]c(=O)n(-c4ncc(F)cc4F)c3c2cc1-c1cnn(C)c1 [compound 107, 1-(3,5-Difluoropyridin-2-yl)-7-methoxy-8-(1-methyl-1H-pyrazol-4-yl)-1,3-dihydro-imidazo[4,5-c]quinolin-2-one]	< 1	–
CCOc1cnc(-n2c(=O)n(C)c3cnc4cc(OC)c(-c5cnn(C)c5)cc4c32)c(F)c1 [compound 113, 1-(5-Ethoxy-3-fluoropyridin-2-yl)-7-methoxy-3-methyl-8-(1-methyl-1H-pyrazol-4-yl)-1,3-dihydroimidazo[4,5-c]-quinolin-2-one]	< 1	–
COc1cc2ncc3c(c2cc1-c1cnn(C)n1)n(-c1ncccc1F)c(=O)n3C [compound 158, 1-(3-Fluoropyridin-2-yl)-7-methoxy-3-methyl-8-(2-methyl-2H-1,2,3-triazol-4-yl)-1,3-dihydroimidazo-[4,5-c] quinolin-2-one]	< 500	–
COc1cc2ncc3c(c2cc1-c1cn(C)nn1)n(-c1ccncc1F)c(=O)n3C [compound 64, 1-(3-Fluoropyridin-4-yl)-7-methoxy-3-methyl-8-(1-methyl-1H-1,2,3-triazol-4-yl)-1,3-dihydroimidazo-[4,5-c] quinolin-2-one]	< 10	–
CCn1cc(-c2cc3c(cc2OC)ncc2c3n(-c3ccncc3OC)c(=O)n2C)cn1 [compound 104, 8-(1-Ethyl-1H-pyrazol-4-yl)-7-methoxy-1-(3-methoxy-pyridin-4-yl)-3-methyl-1,3-dihydroimidazo[4,5-c] quinolin-2-one]	< 10	–
COc1cnc(-n2c(=O)[nH]c3cnc4cc(OC)c(-c5cnn(C)c5)cc4c32)c(F)c1 [compound 115, 1-(3-Fluoro-5-methoxy-pyridin-2-yl)-7-methoxy-8-(1-methyl-1H-pyrazol-4-yl)-1,3-dihydroimidazo[4,5-c]-quinolin-2-one]	< 10	–
